In data set [1] the target is T1, CYP1A2 (Homo sapiens, UniProt P05177).
T1 construct: purchased
T1 sequence (P05177 1-516): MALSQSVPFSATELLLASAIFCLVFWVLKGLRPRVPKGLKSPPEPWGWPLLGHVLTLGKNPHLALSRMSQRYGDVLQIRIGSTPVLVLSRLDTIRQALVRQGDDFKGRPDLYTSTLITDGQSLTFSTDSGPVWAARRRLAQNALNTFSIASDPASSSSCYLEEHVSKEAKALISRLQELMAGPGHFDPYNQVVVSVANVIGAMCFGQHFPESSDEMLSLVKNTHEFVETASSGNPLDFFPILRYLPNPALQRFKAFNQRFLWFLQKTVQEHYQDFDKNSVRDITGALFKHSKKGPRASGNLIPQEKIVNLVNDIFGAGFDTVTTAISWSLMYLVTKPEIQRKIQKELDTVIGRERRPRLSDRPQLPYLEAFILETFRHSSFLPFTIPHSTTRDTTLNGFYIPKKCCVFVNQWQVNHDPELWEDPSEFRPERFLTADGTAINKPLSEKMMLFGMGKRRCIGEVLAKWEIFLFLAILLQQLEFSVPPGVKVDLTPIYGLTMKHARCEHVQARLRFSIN
Description: CYP enzyme inhibition test, P450-Glo CYP1A2 Screening System. It counts as in vitro ADME. The settings on record: for inhibitory effect on CYP1A2: conclusion in words. The protocol: (§1) Experimental Example 6: CYP Enzyme Inhibition Test CYP450 is the most important enzyme system in drug metabolism. The enzymes involved in metabolism interact with drugs, and the most important ones are CYP1A2, CYP2D6 and CYP3A4. P450-Glo™ CYP1A2 Screening System, Vivid® CYP2D6 Cyan Screening Kit and Vivid® CYP3A4 Red Screening Kit were used in this test, and the inhibitory effects of the compounds on CYP1A2, CYP2D6 and CYP3A4 were determined according to the instructions of the kit.

In data set [2] the target is T2, CYP2D6 (Homo sapiens, UniProt P10635).
T2 construct: purchased
The data set is described as follows: CYP enzyme inhibition test, Vivid CYP2D6 Cyan Screening Kit. As to conditions: for inhibitory effect on CYP2D6: conclusion in words. It counts as in vitro ADME. The procedure:
as §1

Data set [3] addresses T3, CYP3A4 (Homo sapiens, UniProt P08684).
T3 construct: purchased
The data set is described as follows: CYP enzyme inhibition test, Vivid CYP3A4 Red Screening Kit. It counts as in vitro ADME. The settings on record: for inhibitory effect on CYP3A4: conclusion in words. The protocol:
as §1

Data set [4] concerns the target T4, hERG potassium channel (Homo sapiens, UniProt Q12809). The data set is described as follows: in vitro.
For data set [5], the target named is T4, hERG potassium channel. Description: cell-based.
In data set [6] the target is T4, hERG potassium channel. Description: hERG test, Predictor hERG Fluorescence Polarization Assay Kit. The format is binding. Further details: expressed in transfected cells; host or cells: HEK-293. As to conditions: test concentrations 1 μM and 10 μM. The text has this:
Experimental Example 5: hERG Test
1. Predictor™ hERG Fluorescence Polarization Assay Kit (ThermoFisher) was used to test the inhibitory effect of the compounds on hERG potassium channel according to the instructions of the kit.

Some results are limits rather than exact numbers.

These results are taken from US20220056043A1, “NITROGEN-CONTAINING FUSED CYCLIC COMPOUND, PREPARATION METHOD THEREFOR AND USE THEREOF” (SICHUAN KELUN-BIOTECH BIOPHARMACEUTICAL CO., LTD., priority 2019, published 2022).

By IC50 is commonly meant the midpoint of a concentration-inhibition curve. A word on the inhibition: it is the change of the read-out against control, counted positive when it falls. The low end stands for a weak effect, the high end for a strong effect.

T4 sequence (Q12809 whole entry): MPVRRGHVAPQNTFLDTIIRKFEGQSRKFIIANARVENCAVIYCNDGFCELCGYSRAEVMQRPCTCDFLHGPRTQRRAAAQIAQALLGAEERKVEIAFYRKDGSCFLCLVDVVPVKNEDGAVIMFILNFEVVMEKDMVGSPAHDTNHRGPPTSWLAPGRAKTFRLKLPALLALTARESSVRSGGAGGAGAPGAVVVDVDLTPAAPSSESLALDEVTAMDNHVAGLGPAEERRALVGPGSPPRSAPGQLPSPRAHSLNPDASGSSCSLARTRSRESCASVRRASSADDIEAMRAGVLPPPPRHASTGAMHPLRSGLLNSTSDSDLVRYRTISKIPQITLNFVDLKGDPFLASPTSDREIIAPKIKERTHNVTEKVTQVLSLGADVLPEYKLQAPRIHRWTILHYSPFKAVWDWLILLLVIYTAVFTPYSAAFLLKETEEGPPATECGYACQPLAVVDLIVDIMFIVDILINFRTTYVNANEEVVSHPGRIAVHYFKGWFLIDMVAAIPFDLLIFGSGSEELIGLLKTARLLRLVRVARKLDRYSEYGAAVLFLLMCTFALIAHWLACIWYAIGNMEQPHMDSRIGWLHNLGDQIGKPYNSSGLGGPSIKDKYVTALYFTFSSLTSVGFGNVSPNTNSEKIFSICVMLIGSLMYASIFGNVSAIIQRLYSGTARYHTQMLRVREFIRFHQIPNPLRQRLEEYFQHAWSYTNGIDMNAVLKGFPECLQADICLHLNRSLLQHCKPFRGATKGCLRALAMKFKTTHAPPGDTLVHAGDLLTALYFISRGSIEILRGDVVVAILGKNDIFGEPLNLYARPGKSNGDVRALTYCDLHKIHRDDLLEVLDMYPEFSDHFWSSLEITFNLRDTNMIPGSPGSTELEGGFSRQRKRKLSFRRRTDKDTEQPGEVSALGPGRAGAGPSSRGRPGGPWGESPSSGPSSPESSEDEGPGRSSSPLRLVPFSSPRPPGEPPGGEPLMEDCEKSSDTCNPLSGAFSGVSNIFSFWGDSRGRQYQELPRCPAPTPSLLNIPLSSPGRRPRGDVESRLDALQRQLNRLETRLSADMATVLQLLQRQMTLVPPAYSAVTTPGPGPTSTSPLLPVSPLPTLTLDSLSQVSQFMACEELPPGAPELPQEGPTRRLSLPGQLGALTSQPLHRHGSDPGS
T2 sequence (P10635 whole entry): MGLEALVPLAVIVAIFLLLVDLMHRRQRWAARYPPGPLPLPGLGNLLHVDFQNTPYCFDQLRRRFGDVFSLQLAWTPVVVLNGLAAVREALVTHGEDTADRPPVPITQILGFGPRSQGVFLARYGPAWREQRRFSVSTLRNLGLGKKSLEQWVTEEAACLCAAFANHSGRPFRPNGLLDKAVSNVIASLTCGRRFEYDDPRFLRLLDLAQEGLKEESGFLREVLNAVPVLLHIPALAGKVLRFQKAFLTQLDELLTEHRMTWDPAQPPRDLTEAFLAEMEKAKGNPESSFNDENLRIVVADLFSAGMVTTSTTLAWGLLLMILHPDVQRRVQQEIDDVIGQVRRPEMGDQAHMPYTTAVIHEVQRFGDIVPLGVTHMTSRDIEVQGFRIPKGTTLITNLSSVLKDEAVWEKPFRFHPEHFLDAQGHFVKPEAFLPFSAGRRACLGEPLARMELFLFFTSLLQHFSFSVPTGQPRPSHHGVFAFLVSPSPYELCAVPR
T3 sequence (P08684 whole entry): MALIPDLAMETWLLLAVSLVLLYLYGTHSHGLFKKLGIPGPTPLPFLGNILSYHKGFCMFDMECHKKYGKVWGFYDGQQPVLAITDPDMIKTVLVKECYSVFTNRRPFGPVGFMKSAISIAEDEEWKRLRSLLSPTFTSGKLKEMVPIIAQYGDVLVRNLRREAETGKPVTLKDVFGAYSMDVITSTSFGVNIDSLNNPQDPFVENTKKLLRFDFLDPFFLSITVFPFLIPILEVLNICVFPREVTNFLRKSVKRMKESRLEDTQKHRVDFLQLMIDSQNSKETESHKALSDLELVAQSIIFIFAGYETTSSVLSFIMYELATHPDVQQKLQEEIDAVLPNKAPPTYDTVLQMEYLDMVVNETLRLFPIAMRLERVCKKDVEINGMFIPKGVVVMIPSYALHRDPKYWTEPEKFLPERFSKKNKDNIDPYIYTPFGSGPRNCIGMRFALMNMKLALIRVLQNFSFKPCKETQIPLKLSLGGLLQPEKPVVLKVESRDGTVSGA

Take `Nc1cc(N[C@@H]2CC[C@H](O)C2)c2sc(-c3ccn[nH]3)cc2n1` [Compound 31, (1S,3R)-3-((5-amino-2-(1H-pyrazol-5-yl)thieno[3,2-b]pyridin-7-yl)amino)cyclopentanol]: in data set [1], the half-inhibitory concentration (IC50) was greater than 10 µM and the “inhibitory effect on CYP1A2” value was “no apparent inhibitory effects”. Besides, in data set [2], the IC50 was greater than 10 µM and the “inhibitory effect on CYP2D6” value is reported as “no apparent inhibitory effects”. Besides, in data set [3], the IC50 is greater than 10 µM and the “inhibitory effect on CYP3A4” value is given as “no apparent inhibitory effects”.
As for `COCCNc1cc(N)nc2cc(-c3ccn[nH]3)sc12` [Compound 100, N^7-(2-methoxyethyl)-2-(1H-pyrazol-5-yl)thieno[3,2-b]pyridine-5,7-diamine], the inhibition at 10 μM in data set [4] turned out to be 5.42 ± 2.2%. This compound also came in with an IC50 in data set [5] greater than 10 µM.
Take `COC(C)(C)CNc1cc(N)nc2cc(-c3ccn[nH]3)sc12` [Compound 111, N^7-(2′-methoxy-2′-methylpropyl)-2-(1H-pyrazol-5-yl)thieno[3,2-b]pyridine-5,7-diamine]: in data set [1], the IC50 was greater than 10 µM and the “inhibitory effect on CYP1A2” value is on record as “no apparent inhibitory effects”. In data set [2], the IC50 is greater than 10 µM and the “inhibitory effect on CYP2D6” value is on record as “no apparent inhibitory effects”. For the same compound, in data set [3], the IC50 is greater than 10 µM and the “inhibitory effect on CYP3A4” value is listed as “no apparent inhibitory effects”. The IC50 in data set [6] is greater than 10 µM.
Take `Nc1cc(NC2COC2)c2sc(-c3ccn[nH]3)cc2n1` [Compound 112, N^7-(oxetan-3-yl)-2-(1H-pyrazol-5-yl)thieno[3,2-b]pyridine-5,7-diamine]: in data set [1], the IC50 is greater than 10 µM and the “inhibitory effect on CYP1A2” value was “no apparent inhibitory effects”. In data set [2], the IC50 was greater than 10 µM and the “inhibitory effect on CYP2D6” value is “no apparent inhibitory effects”. Besides, in data set [3], the IC50 is greater than 10 µM and the “inhibitory effect on CYP3A4” value is “no apparent inhibitory effects”. In data set [6], the IC50 is greater than 10 µM.
As to `Nc1cc(NC2CCC(O)CC2)c2sc(-c3ccn[nH]3)cc2n1` (stereo not shown) [Compound 114, 4-((5-amino-2-(1H-pyrazol-5-yl)thieno[3,2-b]pyridin-7-yl)amino)-1-cyclohexanol], in data set [1], the IC50 is greater than 10 µM and the “inhibitory effect on CYP1A2” value is listed as “no apparent inhibitory effects”. Further, in data set [2], the IC50 is greater than 10 µM and the “inhibitory effect on CYP2D6” value is listed as “no apparent inhibitory effects”. In addition, in data set [3], the IC50 is greater than 10 µM and the “inhibitory effect on CYP3A4” value was “no apparent inhibitory effects”.
With `CC(C)(CO)CNc1cc(N)nc2cc(-c3ccn[nH]3)sc12` [Compound 115, 3-((5-amino-2-(1H-pyrazol-5-yl)thieno[3,2-b]pyridin-7-yl)amino)-2,2-dimethyl-1-propanol], the IC50 in data set [1], in data set [2], in data set [3] and in data set [5] was greater than 10 µM throughout. In addition, the “inhibitory effect on CYP1A2” value in data set [1] is listed as “no apparent inhibitory effects”. In addition, the “inhibitory effect on CYP2D6” value in data set [2] is “no apparent inhibitory effects”. The “inhibitory effect on CYP3A4” value in data set [3] is on record as “no apparent inhibitory effects”. This compound also returned an inhibition at 10 μM in data set [4] of 8.26 ± 3.66%.
For the compound `Nc1cc(NCC(F)F)c2sc(-c3ccn[nH]3)cc2n1` [Compound 116, N^7-(2,2-difluoroethyl)-2-(1H-pyrazol-5-yl)thieno[3,2-b]pyridine-5,7-diamine], the inhibition at 10 μM in data set [4] came to 18.5 ± 4.98%. Also, the IC50 in data set [5] was greater than 10 µM.
The corresponding values for `Nc1cc(NCC2CCOCC2)c2sc(-c3ccn[nH]3)cc2n1` [Compound 120, 2-(1H-pyrazol-5-yl)-N^7-((tetrahydro-2H-pyran-4-yl)methyl)thieno[3,2-b]pyridine-5,7-diamine] are 11.7 ± 0.7% and greater than 10 µM.
